Tested on: male subjects
Assay: Randomized placebo-controlled double blind exercise test: rehydration solution, 75 min treadmill run in 30° C. heat, then sprint to volitional exhaustion
Format: in vivo, human
Description: Ten male subjects were selected to participate in four experimental tests, described below. The study design was a randomized placebo-controlled double blind test. These tests were identical, except that a different rehydration solution was consumed during each session. The rehydration solutions are:
(a) Non-nutritive KOOL-AID®;
(b) Non-nutritive KOOL-AID® and betaine (5 g/l);
(d) GATORADE® and betaine (5 g/l).
The order of treatment for each subject was randomized.
The following measurements were taken throughout each of the four experimental tests:
1) Hydration variables were measured each day, including urine specific gravity and color, body weight, plasma osmolity.
2) Blood variables were sampled during each trial, including, hematocrit, hemoglobin, osmolality, glucose, lactate.
3) Physiological variables were measured during each trial, such as time to exhaustion (duration of final sprint), heart rate, blood pressure, oxygen consumption, minute ventilation, mean weighted skin temperature, rectal temperature, whole body sweat rate.
4) Perceptual variables were recorded, such as rating of perceived exertion (Borg scale) during the exercise test, thermal stress during the exercise test, thirst sensation during the exercise test.
Each subject participated in four experimental tests, performed at the same time of day for each subject, using the same posture at each stage of testing. Experimental tests were randomized. Trials were conducted in an environmental chamber controlled at 30° C.
When they arrived at the test center at 7:00 a.m., the body weight was measured, a blood sample was taken and the specific gravity of the urine was measured. In general, the subjects were mildly dehydrated, losing approximately 1% body weight. […] Subsequently, thereto, they then entered an environmental chamber which was maintained at a temperature of 30° C. and they stood for thirty minutes to effect fluid and thermal equilibration.
Various measurements were taken of each subject including blood pressure, urine specific gravity, body weight, blood pressure, plasma, osmolality and a blood sample when in the environmental chamber prior to the test. Each then performed cycling and walking exercise for 60-90 minutes at 50-55% VO2max so that they each lost about 3% of body weight.
At about 9:30 a.m., they consumed one of the above fluids.
The total volume was ingested in five equal portions over 25 minutes. (This increased the body weight change to a −1.5% level). They each stood an additional twenty minutes to allow gastric emptying. Then they began a treadmill run for 75 minutes at 65% VO2max. They finished the exercise in the heat by a sprinting to volitional exhaustion at a treadmill pace that elicits 90% VO2max. At the conclusion, they stood in the environmental chamber for additional measurements during a 15 minute recovery period. They left the chamber, then ate a meal and drank fluids.
The test was repeated for each person three more times, except each time they ingested a different one of the fluids so that at the end of the test, each subject had ingested each one of the four fluids. Subjects were instructed to match the diet they ate before the initial experiment, during the three subsequent trials. […]

C[N+](C)(C)CC(=O)[O-] [betaine, trimethylglycine]
increased plasma lactate levels 15 minutes after the sprint (GATORADE trials, betaine 5 g/l): 17%
increased plasma lactate levels immediately after the sprint (GATORADE trials, betaine 5 g/l): 10%
greater oxygen uptake (aerobic metabolism) while sprinting (GATORADE trials, betaine 5 g/l vs GATORADE alone): 6%
increased plasma lactate levels after the sprint (KOOL-AID trials, betaine 5 g/l): This effect was not seen
greater oxygen uptake (aerobic metabolism) while sprinting (KOOL-AID trials, betaine 5 g/l vs KOOL-AID alone): This effect was not seen

Reference: patent US20030091615A1, “Use of betaine to enhance exercise performance” (priority 2001, published 2003)
